Measured values: the NIST ThermoML archive (doi:10.1021/je900916e)

Assay: cn = amount concentration of the nth substance listed, in mol/dm3
Details: 101 kPa, Liquid, Advanced Conductivity Orion 162A

CCCC[N+](CCCC)(CCCC)CCCC.O=C([O-])C(F)(F)C(F)(F)C(F)(F)C(F)(F)C(F)(F)C(F)(F)C(F)(F)F [tetrabutylammonium perfluorooctanoate] + O
Details	electrical conductivity [S/m]
283.1 K, c1 = 0.000329	0.00105
283.1 K, c1 = 0.000649	0.0019
283.1 K, c1 = 0.000962	0.00271
283.1 K, c1 = 0.001266	0.00351
283.1 K, c1 = 0.001562	0.00431
283.1 K, c1 = 0.001852	0.00505
283.1 K, c1 = 0.002134	0.00579
283.1 K, c1 = 0.00241	0.00643
283.1 K, c1 = 0.002678	0.00707
283.1 K, c1 = 0.002941	0.00749
283.1 K, c1 = 0.003198	0.00762
283.1 K, c1 = 0.003448	0.0077
283.1 K, c1 = 0.003814	0.00782
283.1 K, c1 = 0.004167	0.00793
283.1 K, c1 = 0.004508	0.00803
283.1 K, c1 = 0.004839	0.00812
283.1 K, c1 = 0.005159	0.00821
283.1 K, c1 = 0.005469	0.00831
288.15 K, c1 = 0.000247	0.00099
288.15 K, c1 = 0.000488	0.00175
288.15 K, c1 = 0.000723	0.00249
288.15 K, c1 = 0.000952	0.0032
288.15 K, c1 = 0.001176	0.00389
288.15 K, c1 = 0.001395	0.00457
288.15 K, c1 = 0.001609	0.00521
288.15 K, c1 = 0.001818	0.00582
288.15 K, c1 = 0.00202	0.00641
288.15 K, c1 = 0.002222	0.00704
288.15 K, c1 = 0.002418	0.00756
288.15 K, c1 = 0.002609	0.00796
288.15 K, c1 = 0.002796	0.00811
288.15 K, c1 = 0.002979	0.00819
288.15 K, c1 = 0.003246	0.0083
288.15 K, c1 = 0.003505	0.00839
288.15 K, c1 = 0.003838	0.00852
288.15 K, c1 = 0.004158	0.00863
288.15 K, c1 = 0.004466	0.00873
288.15 K, c1 = 0.004906	0.00888
288.15 K, c1 = 0.005321	0.00902
293.15 K, c1 = 0.000263	0.00116
293.15 K, c1 = 0.000519	0.0021
293.15 K, c1 = 0.000769	0.00299
293.15 K, c1 = 0.001013	0.00386
293.15 K, c1 = 0.00125	0.00471
293.15 K, c1 = 0.001481	0.00552
293.15 K, c1 = 0.001707	0.00626
293.15 K, c1 = 0.001928	0.00699
293.15 K, c1 = 0.002143	0.0077
293.15 K, c1 = 0.002353	0.00829
293.15 K, c1 = 0.002558	0.0085
293.15 K, c1 = 0.002759	0.00862
293.15 K, c1 = 0.002954	0.00871
293.15 K, c1 = 0.00324	0.00884
293.15 K, c1 = 0.003516	0.00895
293.15 K, c1 = 0.003784	0.00907
293.15 K, c1 = 0.004042	0.0092
293.15 K, c1 = 0.004375	0.00931
293.15 K, c1 = 0.004694	0.00944
293.15 K, c1 = 0.005	0.00956
298.15 K, c1 = 0.000248	0.00124
298.15 K, c1 = 0.00049	0.00229
298.15 K, c1 = 0.000728	0.0033
298.15 K, c1 = 0.000962	0.0043
298.15 K, c1 = 0.00119	0.00528
298.15 K, c1 = 0.001415	0.00618
298.15 K, c1 = 0.001636	0.00703
298.15 K, c1 = 0.001852	0.00789
298.15 K, c1 = 0.002064	0.00869
298.15 K, c1 = 0.002273	0.00907
298.15 K, c1 = 0.002477	0.00916
298.15 K, c1 = 0.002728	0.00927
298.15 K, c1 = 0.003094	0.00944
298.15 K, c1 = 0.003448	0.00959
298.15 K, c1 = 0.003814	0.00976
298.15 K, c1 = 0.004167	0.00992
298.15 K, c1 = 0.004592	0.01011
298.15 K, c1 = 0.005	0.01028
303.15 K, c1 = 0.000263	0.00148
303.15 K, c1 = 0.000519	0.00267
303.15 K, c1 = 0.000769	0.00383
303.15 K, c1 = 0.001013	0.00497
303.15 K, c1 = 0.00125	0.0061
303.15 K, c1 = 0.001481	0.00717
303.15 K, c1 = 0.001707	0.00814
303.15 K, c1 = 0.001928	0.00909
303.15 K, c1 = 0.002143	0.00964
303.15 K, c1 = 0.002353	0.00979
303.15 K, c1 = 0.002558	0.00989
303.15 K, c1 = 0.002759	0.00998
303.15 K, c1 = 0.002954	0.01005
303.15 K, c1 = 0.00324	0.01016
303.15 K, c1 = 0.003516	0.01026
303.15 K, c1 = 0.003784	0.01035
303.15 K, c1 = 0.004042	0.01044
303.15 K, c1 = 0.004375	0.01055
303.15 K, c1 = 0.004694	0.01065
308.15 K, c1 = 0.000309	0.00189
308.15 K, c1 = 0.00061	0.0034
308.15 K, c1 = 0.000904	0.00484
308.15 K, c1 = 0.00119	0.00633
308.15 K, c1 = 0.00147	0.00774
308.15 K, c1 = 0.001744	0.00909
308.15 K, c1 = 0.002011	0.01001
308.15 K, c1 = 0.002273	0.01017
308.15 K, c1 = 0.002423	0.01022
308.15 K, c1 = 0.002578	0.01026
308.15 K, c1 = 0.002728	0.0103
308.15 K, c1 = 0.002876	0.01034
